Assay results: ChEMBL document CHEMBL2375352, “Spirostanoids with 1,4-dien-3-one or 3β,7α-diol-5,6-ene moieties from Solanum violaceum” (Bioorg Med Chem Lett, 2013)
≈ marks a conversion by molar mass, not a printed value.

Experiments:
[1] = test system: MCF7; experiment: Cytotoxicity against human MCF7 cells; type: functional, cell-based
[2] = test system: HepG2; experiment: Cytotoxicity against human HepG2 cells; type: functional, cell-based
[3] = Cytotoxicity against human Hep3B cells; type: functional, cell-based, Hep 3B2
[4] = test system: MDA-MB-231; experiment: Cytotoxicity against human MDA-MB-231 cells; type: functional, cell-based
[5] = test system: A549; experiment: Cytotoxicity against human A549 cells; type: functional, cell-based

| Compound | IC50 [1] | IC50 [2] | IC50 [3] | IC50 [4] | IC50 [5] |
| --- | --- | --- | --- | --- | --- |
| CC[C@H](/C=C/[C@@H](C)[C@H]1CC[C@H]2[C@@H]3C(=O)C=C4C[C@@H](O)CC[C@]4(C)[C@H]3CC[C@]12C)C(C)C | > 20 µg/mL | > 20 µg/mL | > 20 µg/mL | > 20 µg/mL | > 20 µg/mL |
| CC[C@H](CC[C@@H](C)[C@H]1CC[C@H]2[C@@H]3C(=O)C=C4C[C@@H](O)CC[C@]4(C)[C@H]3CC[C@]12C)C(C)C | > 20 µg/mL | > 20 µg/mL | > 20 µg/mL | > 20 µg/mL | > 20 µg/mL |
| C[C@H]1CC[C@@]2(OC1)O[C@H]1C[C@H]3[C@@H]4CC=C5C[C@@H](O)CC[C@]5(C)[C@H]4CC[C@]3(C)[C@H]1[C@@H]2C | > 20 µg/mL | > 20 µg/mL | > 20 µg/mL | > 20 µg/mL | > 20 µg/mL |
| CC(C)[C@@H](C)/C=C/[C@@H](C)[C@H]1CC[C@@H]2[C@]1(C)CC=C1[C@]23C=C[C@]2(C[C@@H](O)CC[C@]12C)OO3 | 9.18 µg/mL (≈ 21.5 µM) | 7.73 µg/mL (≈ 18.1 µM) | 15.5 µg/mL (≈ 36.4 µM) | 7.32 µg/mL (≈ 17.2 µM) | 10.4 µg/mL (≈ 24.3 µM) |
| C[C@@H]1CC[C@@]2(OC1)O[C@H]1C[C@H]3[C@@H]4CCC5=CC(=O)CC[C@]5(C)[C@H]4CC[C@]3(C)[C@H]1[C@@H]2C [DIOSGENONE] | > 20 µg/mL | 13.4 µg/mL (≈ 32.6 µM) | > 20 µg/mL | > 20 µg/mL | > 20 µg/mL |
| C[C@@H]1CC[C@@]2(OC1)O[C@H]1C[C@H]3[C@@H]4CC=C5C[C@@H](O)CC[C@]5(C)[C@H]4CC[C@]3(C)[C@H]1[C@@H]2C [DISOGENIN] | > 20 µg/mL | > 20 µg/mL | > 20 µg/mL | > 20 µg/mL | > 20 µg/mL |
| COc1cccc2c1C(=O)c1c(O)c3c(c(O)c1C2=O)C[C@@](O)(C(=O)CO)C[C@@H]3O[C@H]1C[C@H](N)[C@H](O)[C@H](C)O1 [DOXORUBICIN] | 0.29 µg/mL (≈ 0.534 µM) | 0.4 µg/mL (≈ 0.736 µM) | 0.24 µg/mL (≈ 0.442 µM) | 0.38 µg/mL (≈ 0.699 µM) | – |
| CC(C)[C@@H](C)/C=C/[C@@H](C)[C@H]1CC[C@@H]2[C@]1(C)CC[C@H]1[C@]23C=C[C@]2(C[C@@H](O)CC[C@]12C)OO3 [ERGOSTEROL PEROXIDE] | 13.4 µg/mL (≈ 31.3 µM) | 15.3 µg/mL (≈ 35.6 µM) | 16.5 µg/mL (≈ 38.5 µM) | 16.7 µg/mL (≈ 39.1 µM) | 14.3 µg/mL (≈ 33.4 µM) |
| COc1cc2ccc(=O)oc2cc1O [SCOPOLETIN] | 17.1 µg/mL (≈ 89 µM) | > 20 µg/mL | > 13.2 µg/mL | > 20 µg/mL | > 20 µg/mL |
| COc1cc([C@H]2OC[C@H]3[C@@H]2CO[C@@H]3c2cc(OC)c(O)c(OC)c2)cc(OC)c1O [SYRINGARESINOL] | > 20 µg/mL | > 20 µg/mL | 15.7 µg/mL (≈ 37.6 µM) | > 20 µg/mL | > 20 µg/mL |
